The text below walks through data of ChEMBL document CHEMBL1154394, “The preparation of 2,6-disubstituted pyridinyl phosphine oxides as novel anti-cancer agents” (Bioorg Med Chem Lett, 2009).

The source made the active and inactive calls. No cut-off for these calls is given here.

Assay [1] relates to MDA-MB-231. The assay can be described thus: Growth inhibition of human MDA-MB-231 cells at 100 uM after 48 hrs by one step ATP lite assay. It is filed as functional. The following applies: MDA-MB-231, 48 h, read-out: GI.
In assay [2] the test system is SK-HEP1. The assay can be described thus: Growth inhibition of human SKHEP1 cells at 100 uM after 48 hrs by one step ATP lite assay. The assay is classed as functional. Further details: scale not given: the % may be the effect or the level left.
In assay [3] the test system is MDA-MB-231. The assay can be described thus: Induction of apoptosis in human MDA-MB-231 cells assessed as morphological changes at 60 uM after 48 hrs. It is filed as functional, cell-based.
The subject of assay [4] is SK-HEP1. The assay can be described thus: Induction of apoptosis in human SKHEP1 cells assessed as morphological changes at 60 uM after 48 hrs. The assay is classed as functional, cell-based.
In assay [5] the test system is MDA-MB-231. The assay can be described thus: Cytotoxicity against human MDA-MB-231 cells after 48 hrs by one step ATP lite assay. The assay is classed as functional, cell-based.
Assay [6] deals with SK-HEP1. The assay can be described thus: Cytotoxicity against human SKHEP1 cells after 48 hrs by one step ATP lite assay. The assay is classed as functional, cell-based.
Assay [7] can be described thus: Cytotoxicity against non malignant human hematological disorder bone marrow cells after 48 hrs by one step ATP lite assay. To be noted: Bone marrow cell. The assay is classed as cell-based.
The test system of assay [8] is MDA-MB-231. The assay can be described thus: Growth inhibition of human MDA-MB-231 cells at 70 uM after 48 hrs by one step ATP lite assay in presence of z-VAD-fmk. The assay is classed as functional, cell-based.
Assay [9] concerns SK-HEP1. The assay can be described thus: Growth inhibition of human SKHEP1 cells at 70 uM after 48 hrs by one step ATP lite assay in presence of z-VAD-fmk. It is filed as functional, cell-based.

Regarding `COc1cc(P(=O)(c2ccccc2)c2ccccc2)c(Br)c(OC)n1`, in the assay with MDA-MB-231 [1], the inhibition of growth at 100 µM worked out at 30%. The same molecule showed an Activity in the assay with SK-HEP1 [2] of 30%. Moreover, the outcome in the assay on MDA-MB-231 [3] and in the assay on SK-HEP1 [4] was Active.
In the case of `COc1cc(P(=O)(c2ccccc2)c2ccccc2)cc(OC)n1`, the result with MDA-MB-231 [5] and with SK-HEP1 [6] was Active.
For the molecule `COc1nc(OC)c(Br)c(P(=O)(c2ccccc2)c2ccccc2)c1Br`, the IC50 (as a rule, the concentration needed to halve the response being measured) worked out at 47.5 µM in the assay on MDA-MB-231 [5] (MDA-MB-231, 48 h); 38.5 µM with SK-HEP1 [6] (SK-HEP1, 48 h); 54.2 µM in assay [7]. For the same molecule, the result with MDA-MB-231 [3] and in the assay with SK-HEP1 [4] was Active. For the same molecule, the result with MDA-MB-231 [8] and with SK-HEP1 [9] was inactive.
